Measurements: patent US6737383B1, “Herbicidal oxadiazolidines” (priority 1999, dated 2004)

Assays:
[1] = tested on: bedstraw; test: Test B pre/postemergence bedstraw; type: in vivo, Galium aparine
Method in brief: (§1)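 Herbicidal effect was estimated by eye on a ten-point control scale after plants spent twelve to sixteen days in a greenhouse following soil or foliar treatment. Foliar sprays targeted plants at one to four leaves; all doses were formulated in a non-phytotoxic solvent with surfactant.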

[2] = tested on: cocklebur; test: Test B pre/postemergence cocklebur; type: in vivo, Xanthium strumarium
Method in brief: as §1

[3] = tested on: corn; test: Test B pre/postemergence corn; type: in vivo, Zea mays
Method in brief: as §1

[4] = tested on: crabgrass; test: Test B pre/postemergence crabgrass; type: in vivo, Digitaria sanguinalis
Method in brief: as §1

[5] = tested on: giant foxtail; test: Test B pre/postemergence giant foxtail; type: in vivo, Setaria faberii
Method in brief: as §1

[6] = tested on: morningglory; test: Test B pre/postemergence morningglory; type: in vivo, Ipomoea hederacea
Method in brief: as §1

[7] = tested on: pigweed; test: Test B pre/postemergence pigweed; type: in vivo, Amaranthus retroflexus
Method in brief: as §1

[8] = tested on: rape; test: Test B pre/postemergence rape; type: in vivo, Brassica napus
Method in brief: as §1

[9] = tested on: soybean; test: Test B pre/postemergence soybean; type: in vivo, Glycine max
Method in brief: as §1

[10] = tested on: velvetleaf; test: Test B pre/postemergence velvetleaf; type: in vivo, Abutilon theophrasti
Method in brief: as §1

[11] = tested on: wheat; test: Test B pre/postemergence wheat; type: in vivo, Triticum aestivum
Method in brief: as §1

[12] = tested on: wild oat; test: Test B pre/postemergence wild oat; type: in vivo, Avena fatua
Method in brief: as §1

[13] = tested on: purple nutsedge; test: Test B pre/postemergence purple nutsedge; type: in vivo, Cyperus rotundus
Method in brief: as §1

[14] = tested on: rice; test: Test B flood test rice; type: in vivo, Oryza sativa
Method in brief: (§2)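 Plants were grown to the 2-leaf stage before treatment with test chemical, then held in a greenhouse for twelve to sixteen days. Injury was visually rated against untreated controls on a 0–10 scale, where 0 is no effect and 10 is complete control.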

[15] = tested on: smallflower flatsedge; test: Test B flood test smallflower flatsedge; type: in vivo, Cyperus difformis
Method in brief: as §2

[16] = tested on: duck salad; test: Test B flood test duck salad; type: in vivo, Heteranthera limosa
Method in brief: as §2

[17] = Postemergence, Rate 62 g/ha, scale 0 to 10, 0 is no effect, 10 is complete control
[18] = Postemergence, Rate 250 g/ha, scale 0 to 10, 0 no effect, 10 complete control
[19] = Preemergence, Rate 62 g/ha, scale 0 to 10 (0 no effect, 10 complete control)
[20] = Preemergence, Rate 125 g/ha, scale 0 to 10 (0 no effect, 10 complete control)
[21] = Preemergence, Rate 250 g/ha, scale of 0 to 10 where 0 is no effect and 10 is complete control
[22] = Preemergence, Rate 500 g/ha, scale 0 (no effect) to 10 (complete control)
[23] = Rate 125 g/ha, Postemergence, scale 0 to 10, 0 no effect, 10 complete control
[24] = Rate 500 g/ha, Postemergence, scale 0 to 10, 0 no effect, 10 complete control
[25] = Rate 125 g/ha, Postemergence section (flood test species), scale 0 to 10, 0 no effect, 10 complete control
[26] = Rate 500 g/ha, listed under Postemergence (flood test species), scale 0 to 10, 0 no effect, 10 complete control
[27] = flood test, listed under Postemergence, Rate 250 g/ha, scale 0 to 10, 0 no effect, 10 complete control

Cc1nn(C)c(C)c1-n1c(=O)on(C(=O)N(c2ccc(F)cc2F)C(C)C)c1=O [Compound 76]
Bedstraw plant response rating [1, 17]: 0
Bedstraw plant response rating [1, 18]: 2
Bedstraw plant response rating [1, 19]: 0
Plant response rating, Bedstraw [1, 20]: 0
Plant response rating, Bedstraw [1, 21]: 0
Bedstraw plant response rating [1, 22]: 0
Bedstraw plant response rating [1, 23]: 0
Bedstraw plant response rating [1, 24]: 4
Cocklebur plant response rating [2, 17]: 0
Cocklebur plant response rating [2, 18]: 3
Cocklebur plant response rating [2, 19]: 0
Plant response rating, Cocklebur [2, 20]: 0
Plant response rating, Cocklebur [2, 21]: 0
Cocklebur plant response rating [2, 22]: 0
Cocklebur plant response rating [2, 23]: 0
Cocklebur plant response rating [2, 24]: 4
Corn plant response rating [3, 17]: 0
Corn plant response rating [3, 18]: 0
Corn plant response rating [3, 19]: 0
Plant response rating, Corn [3, 20]: 0
Plant response rating, Corn [3, 21]: 2
Corn plant response rating [3, 22]: 4
Corn plant response rating [3, 23]: 0
Corn plant response rating [3, 24]: 0
Crabgrass plant response rating [4, 17]: 2
Crabgrass plant response rating [4, 18]: 8
Crabgrass plant response rating [4, 19]: 3
Plant response rating, Crabgrass [4, 20]: 4
Plant response rating, Crabgrass [4, 21]: 8
Crabgrass plant response rating [4, 22]: 8
Crabgrass plant response rating [4, 23]: 4
Crabgrass plant response rating [4, 24]: 9
Giant foxtail plant response rating [5, 17]: 3
Giant foxtail plant response rating [5, 18]: 7
Giant foxtail plant response rating [5, 19]: 4
Plant response rating, Giant foxtail [5, 20]: 9
Plant response rating, Giant foxtail [5, 21]: 9
Giant foxtail plant response rating [5, 22]: 9
Giant foxtail plant response rating [5, 23]: 4
Giant foxtail plant response rating [5, 24]: 9
Morningglory plant response rating [6, 17]: 0
Morningglory plant response rating [6, 18]: 4
Morningglory plant response rating [6, 19]: 0
Plant response rating, Morningglory [6, 20]: 0
Plant response rating, Morningglory [6, 21]: 0
Morningglory plant response rating [6, 22]: 0
Morningglory plant response rating [6, 23]: 2
Morningglory plant response rating [6, 24]: 7
Redroot pigweed plant response rating [7, 17]: 0
Redroot pigweed plant response rating [7, 18]: 0
Redroot pigweed plant response rating [7, 19]: 0
Plant response rating, Redroot pigweed [7, 20]: 0
Plant response rating, Redroot pigweed [7, 21]: 3
Redroot pigweed plant response rating [7, 22]: 8
Redroot pigweed plant response rating [7, 23]: 0
Redroot pigweed plant response rating [7, 24]: 4
Rape plant response rating [8, 17]: 0
Rape plant response rating [8, 18]: 0
Rape plant response rating [8, 19]: 0
Plant response rating, Rape [8, 20]: 0
Plant response rating, Rape [8, 21]: 0
Rape plant response rating [8, 22]: 0
Rape plant response rating [8, 23]: 0
Rape plant response rating [8, 24]: 2
Soybean plant response rating [9, 17]: 0
Soybean plant response rating [9, 18]: 2
Soybean plant response rating [9, 19]: 0
Plant response rating, Soybean [9, 20]: 0
Plant response rating, Soybean [9, 21]: 0
Soybean plant response rating [9, 22]: 0
Soybean plant response rating [9, 23]: 1
Soybean plant response rating [9, 24]: 2
Velvetleaf plant response rating [10, 17]: 0
Velvetleaf plant response rating [10, 18]: 3
Velvetleaf plant response rating [10, 19]: 0
Plant response rating, Velvetleaf [10, 20]: 0
Plant response rating, Velvetleaf [10, 21]: 0
Velvetleaf plant response rating [10, 22]: 0
Velvetleaf plant response rating [10, 23]: 0
Velvetleaf plant response rating [10, 24]: 4
Wheat plant response rating [11, 17]: 0
Wheat plant response rating [11, 18]: 0
Wheat plant response rating [11, 19]: 0
Plant response rating, Wheat [11, 20]: 0
Plant response rating, Wheat [11, 21]: 0
Wheat plant response rating [11, 22]: 2
Wheat plant response rating [11, 23]: 0
Wheat plant response rating [11, 24]: 3
Wild oats plant response rating [12, 17]: 0
Wild oats plant response rating [12, 18]: 2
Wild oats plant response rating [12, 19]: 0
Plant response rating, Wild oats [12, 20]: 0
Plant response rating, Wild oats [12, 21]: 4
Wild oats plant response rating [12, 22]: 4
Wild oats plant response rating [12, 23]: 0
Wild oats plant response rating [12, 24]: 5
Nutsedge plant response rating [13, 17]: 0
Nutsedge plant response rating [13, 18]: 0
Nutsedge plant response rating [13, 19]: 0
Plant response rating, Nutsedge [13, 20]: 0
Plant response rating, Nutsedge [13, 21]: 0
Nutsedge plant response rating [13, 22]: 0
Nutsedge plant response rating [13, 23]: 0
Nutsedge plant response rating [13, 24]: 0
Rice plant response rating [14, 17]: 0
Rice plant response rating [14, 25]: 0
Rice plant response rating [14, 26]: 3
Rice plant response rating [14, 27]: 3
S. Flatsedge plant response rating [15, 17]: 0
S. Flatsedge plant response rating [15, 25]: 0
S. Flatsedge plant response rating [15, 26]: 0
S. Flatsedge plant response rating [15, 27]: 0
Ducksalad plant response rating [16, 17]: 0
Ducksalad plant response rating [16, 25]: 0
Ducksalad plant response rating [16, 26]: 0
Ducksalad plant response rating [16, 27]: 0
